Measured values taken from PubChem BioAssay AID1963426 (Molecular Pharmacology Branch, DTP, NCI, 2024).

Tested on: 186277-243-T-J2-PDC complex spheroid growth, % test/control
Experiment: Anticancer human tumor 186277-243-T-J2-PDC patient-derived colon adenocarcinoma cell line growth inhibition [Asc]
Conditions: for IC50: curve of first compound; for viability, T/C: stronger effect = lower value; active = viability on the fitted dose curve at most 10% of control; inactive = the rest
How it was run: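 Tumor cells were grown as multicellular spheroids with stromal HUVEC and mesenchymal stem cells and treated singly or in combination. Concentrations fell in half-log steps from the clinical Cmax, or from 10 microM where none was known.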

[1] = second compound 0.01 µM, first compound 0.00316 µM
[2] = second compound 0.01 µM, first compound 0.01 µM
[3] = second compound 0.01 µM, first compound 0.0316 µM
[4] = second compound 0.01 µM, first compound 0.1 µM
[5] = second compound 0.0316 µM, first compound 0.00316 µM
[6] = second compound 0.0316 µM, first compound 0.01 µM
[7] = second compound 0.0316 µM, first compound 0.0316 µM
[8] = second compound 0.0316 µM, first compound 0.1 µM
[9] = second compound 0.1 µM, first compound 0.00316 µM
[10] = second compound 0.1 µM, first compound 0.01 µM
[11] = second compound 0.1 µM, first compound 0.0316 µM
[12] = second compound 0.1 µM, first compound 0.1 µM
[13] = second compound 0.316 µM, first compound 0.00316 µM
[14] = second compound 0.316 µM, first compound 0.01 µM
[15] = second compound 0.316 µM, first compound 0.0316 µM
[16] = second compound 0.316 µM, first compound 0.1 µM
[17] = second compound 1 µM, first compound 0.00316 µM
[18] = second compound 1 µM, first compound 0.01 µM
[19] = second compound 1 µM, first compound 0.0316 µM
[20] = second compound 1 µM, first compound 0.1 µM
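Note: spheroids exposed to agents for 7 days.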
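Throughout, for viability, T/C: 100% = DMSO vehicle control wells.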

CNC(C)C(=O)NC1CN(S(=O)(=O)c2cccc(S(=O)(=O)N3CCC4CCC(C(=O)NC(c5ccccc5)c5ccccc5)N4C(=O)C(NC(=O)C(C)NC)C3)c2)CCC2CCC(C(=O)NC(c3ccccc3)c3ccccc3)N2C1=O (stereo not given) + CCN1C(C(=O)NC23CCC(C(=O)O)(CC2)CC3)C(c2cccc(Cl)c2F)C2(C(=O)Nc3cc(Cl)ccc32)C12CCCCC2
> 1000 nM: IC50 (second compound 0.03 µM) | IC50 (second compound 0.0949 µM) | IC50 (second compound 0.3 µM)
inactive: viability, T/C (second compound 0.03 µM, first compound 0.00316 µM) 101% | viability, T/C (second compound 0.03 µM, first compound 0.01 µM) 131% | viability, T/C (second compound 0.03 µM, first compound 0.0316 µM) 113% | viability, T/C (second compound 0.03 µM, first compound 0.1 µM) 102% | viability, T/C (second compound 0.03 µM, first compound 0.316 µM) 113% | viability, T/C (second compound 0.03 µM, first compound 1 µM) 112% | viability, T/C (second compound 0.0949 µM, first compound 0.00316 µM) 115% | viability, T/C (second compound 0.0949 µM, first compound 0.01 µM) 114% | viability, T/C (second compound 0.0949 µM, first compound 0.0316 µM) 111% | viability, T/C (second compound 0.0949 µM, first compound 0.1 µM) 94.9% | viability, T/C (second compound 0.0949 µM, first compound 0.316 µM) 82.5% | viability, T/C (second compound 0.0949 µM, first compound 1 µM) 84.9% | viability, T/C (second compound 0.3 µM, first compound 0.00316 µM) 73.6% | viability, T/C (second compound 0.3 µM, first compound 0.01 µM) 79.6% | viability, T/C (second compound 0.3 µM, first compound 0.0316 µM) 87% | viability, T/C (second compound 0.3 µM, first compound 0.1 µM) 77.2% | viability, T/C (second compound 0.3 µM, first compound 0.316 µM) 77.2% | viability, T/C (second compound 0.3 µM, first compound 1 µM) 56.6% | viability, T/C (second compound 0.949 µM, first compound 0.00316 µM) 60.8% | viability, T/C (second compound 0.949 µM, first compound 0.01 µM) 54.8% | viability, T/C (second compound 0.949 µM, first compound 0.0316 µM) 56.7% | viability, T/C (second compound 0.949 µM, first compound 0.1 µM) 55.7% | viability, T/C (second compound 0.949 µM, first compound 0.316 µM) 55.6% | viability, T/C (second compound 0.949 µM, first compound 1 µM) 32.4% | viability, T/C (second compound 3 µM, first compound 0.00316 µM) 36.9% | viability, T/C (second compound 3 µM, first compound 0.01 µM) 37.6% | viability, T/C (second compound 3 µM, first compound 0.0316 µM) 36.2% | viability, T/C (second compound 3 µM, first compound 0.1 µM) 31.5% | viability, T/C (second compound 3 µM, first compound 0.316 µM) 29.6% | viability, T/C (second compound 3 µM, first compound 1 µM) 28.8%
< 3.16 nM: IC50 (second compound 3 µM)
415 nM: IC50 (second compound 0.949 µM)

O=C(c1ccc(F)c(F)c1Nc1ccc(I)cc1F)N1CC(O)([C@@H]2CCCCN2)C1 + CNC(C)C(=O)NC1CN(S(=O)(=O)c2cccc(S(=O)(=O)N3CCC4CCC(C(=O)NC(c5ccccc5)c5ccccc5)N4C(=O)C(NC(=O)C(C)NC)C3)c2)CCC2CCC(C(=O)NC(c3ccccc3)c3ccccc3)N2C1=O
178 nM: IC50 (second compound 0.01 µM)
inactive: viability, T/C [1] 90.3% | viability, T/C [2] 89.6% | viability, T/C [3] 106% | viability, T/C [4] 78.4% | viability, T/C (second compound 0.01 µM, first compound 0.316 µM) 21.6% | viability, T/C (second compound 0.01 µM, first compound 1 µM) 11.9% | viability, T/C [5] 110% | viability, T/C [6] 95.9% | viability, T/C [7] 115% | viability, T/C [8] 82.2% | viability, T/C (second compound 0.0316 µM, first compound 0.316 µM) 17% | viability, T/C (second compound 0.0316 µM, first compound 1 µM) 10.4% | viability, T/C [9] 107% | viability, T/C [10] 104% | viability, T/C [11] 98.8% | viability, T/C [12] 61.7% | viability, T/C (second compound 0.1 µM, first compound 0.316 µM) 15.8% | viability, T/C [13] 112% | viability, T/C [14] 112% | viability, T/C [15] 108% | viability, T/C [16] 59.4% | viability, T/C (second compound 0.316 µM, first compound 0.316 µM) 12.6% | viability, T/C [17] 106% | viability, T/C [18] 119% | viability, T/C [19] 105% | viability, T/C [20] 41.2%
active: viability, T/C (second compound 0.1 µM, first compound 1 µM) 9.21% | viability, T/C (second compound 0.316 µM, first compound 1 µM) 7.61% | viability, T/C (second compound 1 µM, first compound 0.316 µM) 8.18% | viability, T/C (second compound 1 µM, first compound 1 µM) 7.39%
176 nM: IC50 (second compound 0.0316 µM)
134 nM: IC50 (second compound 0.1 µM)
85.4 nM: IC50 (second compound 1 µM)
126 nM: IC50 (second compound 0.316 µM)

Cn1ncnc1[C@H]1c2n[nH]c(=O)c3cc(F)cc(c23)N[C@@H]1c1ccc(F)cc1 + CNC(C)C(=O)NC1CN(S(=O)(=O)c2cccc(S(=O)(=O)N3CCC4CCC(C(=O)NC(c5ccccc5)c5ccccc5)N4C(=O)C(NC(=O)C(C)NC)C3)c2)CCC2CCC(C(=O)NC(c3ccccc3)c3ccccc3)N2C1=O
inactive: viability, T/C (second compound 0.01 µM, first compound 0.000316 µM) 100% | viability, T/C (second compound 0.01 µM, first compound 0.001 µM) 97.5% | viability, T/C [1] 106% | viability, T/C [2] 119% | viability, T/C [3] 144% | viability, T/C [4] 144% | viability, T/C (second compound 0.0316 µM, first compound 0.000316 µM) 108% | viability, T/C (second compound 0.0316 µM, first compound 0.001 µM) 103% | viability, T/C [5] 129% | viability, T/C [6] 124% | viability, T/C [7] 133% | viability, T/C [8] 155% | viability, T/C (second compound 0.1 µM, first compound 0.000316 µM) 121% | viability, T/C (second compound 0.1 µM, first compound 0.001 µM) 115% | viability, T/C [9] 124% | viability, T/C [10] 127% | viability, T/C [11] 146% | viability, T/C [12] 155% | viability, T/C (second compound 0.316 µM, first compound 0.000316 µM) 101% | viability, T/C (second compound 0.316 µM, first compound 0.001 µM) 101% | viability, T/C [13] 108% | viability, T/C [14] 128% | viability, T/C [15] 147% | viability, T/C [16] 159% | viability, T/C (second compound 1 µM, first compound 0.000316 µM) 91.3% | viability, T/C (second compound 1 µM, first compound 0.001 µM) 115% | viability, T/C [17] 104% | viability, T/C [18] 131% | viability, T/C [19] 130% | viability, T/C [20] 149%
> 100 nM: IC50 (second compound 0.01 µM) | IC50 (second compound 0.0316 µM) | IC50 (second compound 0.1 µM) | IC50 (second compound 0.316 µM) | IC50 (second compound 1 µM)
